Source: patent US12077503B2, “Substituted cyclic amides and their use as herbicides” (FMC CORPORATION, priority 2015, dated 2024)

Legend:
Format in all cases: in vivo
[1] = test system: barnyardgrass (Echinochloa crus-galli); experiment: Test G Pre-Emergence Protocol; details: Echinochloa crus-galli, pre-emergence, 312 h, evaluated after 13 days; for pest or weed control at 15.625 g/ha: 15.625 g ai/ha; for pest or weed control at 15.625 g/ha / pest or weed control at 250 g/ha: read-out: Barnyardgrass damage rating (100=total damage to plant; 0=no damage to plant); for pest or weed control at 62.5 g/ha: 62.5 g ai/ha, 100=total damage to plant, 0=no damage to plant, read-out: Barnyardgrass damage rating; for pest or weed control at 250 g/ha: 250 g ai/ha
In short: (§1)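 Seeds were sown in standard soil and kept one day in a glasshouse (24/16° C day/night, 14 h light, 65% humidity), then sprayed with compound in acetone/water (50:50) containing 0.5% Tween 20 at 15.625, 62.5 or 250 g/ha. Damage was scored after 13 days (0 = none, 100 = total).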

[2] = test system: corn (Zea mays); experiment: Test G Pre-Emergence Protocol; details: Zea mays, pre-emergence, 312 h, evaluated after 13 days; for plant injury at 15.625 g/ha: 15.625 g ai/ha; for plant injury at 15.625 g/ha / plant injury at 250 g/ha: read-out: Corn damage rating (100=total damage to plant; 0=no damage to plant); for plant injury at 62.5 g/ha: 62.5 g ai/ha, 100=total damage to plant, 0=no damage to plant, read-out: Corn damage rating; for plant injury at 250 g/ha: 250 g ai/ha
In short: as §1

[3] = test system: giant foxtail (Setaria faberi); experiment: Test G Pre-Emergence Protocol; details: Setaria faberi, pre-emergence, 312 h, evaluated after 13 days; for pest or weed control at 15.625 g/ha: 15.625 g ai/ha; for pest or weed control at 15.625 g/ha / pest or weed control at 250 g/ha: read-out: Foxtail, Giant damage rating (100=total damage to plant; 0=no damage to plant); for pest or weed control at 62.5 g/ha: 62.5 g ai/ha, 100=total damage to plant, 0=no damage to plant, read-out: Foxtail, Giant damage rating; for pest or weed control at 250 g/ha: 250 g ai/ha
In short: as §1

[4] = test system: ivy-leaved morning glory (Ipomoea hederacea); experiment: Test G Pre-Emergence Protocol; details: Ipomoea, pre-emergence, 312 h, evaluated after 13 days; for pest or weed control at 15.625 g/ha: 15.625 g ai/ha; for pest or weed control at 15.625 g/ha / pest or weed control at 250 g/ha: read-out: Morningglory, Ivy-leaved damage rating (100=total damage to plant; 0=no damage to plant); for pest or weed control at 62.5 g/ha: 62.5 g ai/ha, 100=total damage to plant, 0=no damage to plant, read-out: Morningglory, Ivy-leaved damage rating; for pest or weed control at 250 g/ha: 250 g ai/ha
In short: as §1

[5] = test system: redroot pigweed (Amaranthus retroflexus); experiment: Test G Pre-Emergence Protocol; details: Amaranthus retroflexus, pre-emergence, 312 h, evaluated after 13 days; for pest or weed control at 15.625 g/ha: 15.625 g ai/ha; for pest or weed control at 15.625 g/ha / pest or weed control at 250 g/ha: read-out: Pigweed, Redroot damage rating (100=total damage to plant; 0=no damage to plant); for pest or weed control at 62.5 g/ha: 62.5 g ai/ha, 100=total damage to plant, 0=no damage to plant, read-out: Pigweed, Redroot damage rating; for pest or weed control at 250 g/ha: 250 g ai/ha
In short: as §1

[6] = test system: velvetleaf (Abutilon theophrasti); experiment: Test G Pre-Emergence Protocol; details: Abutilon theophrasti, pre-emergence, 312 h, evaluated after 13 days; for pest or weed control at 15.625 g/ha: 15.625 g ai/ha; for pest or weed control at 15.625 g/ha / pest or weed control at 250 g/ha: read-out: Velvetleaf damage rating (100=total damage to plant; 0=no damage to plant); for pest or weed control at 62.5 g/ha: 62.5 g ai/ha, 100=total damage to plant, 0=no damage to plant, read-out: Velvetleaf damage rating; for pest or weed control at 250 g/ha: 250 g ai/ha
In short: as §1

[7] = test system: barnyardgrass (Echinochloa crus-galli); experiment: Test G Post-Emergence Protocol; details: Echinochloa crus-galli, post-emergence, 312 h, read-out: Barnyardgrass damage rating; for pest or weed control at 15.625 g/ha: 15.625 g ai/ha, evaluated after 13 days (100=total damage to plant; 0=no damage to plant); for pest or weed control at 62.5 g/ha: 62.5 g ai/ha; for pest or weed control at 62.5 g/ha / pest or weed control at 250 g/ha: evaluated after 13 days, 100=total damage to plant, 0=no damage to plant; for pest or weed control at 250 g/ha: 250 g ai/ha
In short: (§2)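 Scores run 0 (no damage) to 100 (total damage) and were taken 13 days after spraying. Plants had been raised in pots for 8 days under glasshouse control (24/16 °C, 14 h photoperiod, 65% humidity) and then treated at 15.625, 62.5 or 250 g/ha.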

[8] = test system: corn (Zea mays); experiment: Test G Post-Emergence Protocol; details: Zea mays, post-emergence, 312 h, read-out: Corn damage rating; for plant injury at 15.625 g/ha: 15.625 g ai/ha, evaluated after 13 days (100=total damage to plant; 0=no damage to plant); for plant injury at 62.5 g/ha: 62.5 g ai/ha; for plant injury at 62.5 g/ha / plant injury at 250 g/ha: evaluated after 13 days, 100=total damage to plant, 0=no damage to plant; for plant injury at 250 g/ha: 250 g ai/ha
In short: as §2

[9] = test system: giant foxtail (Setaria faberi); experiment: Test G Post-Emergence Protocol; details: Setaria faberi, post-emergence, 312 h, read-out: Foxtail, Giant damage rating; for pest or weed control at 15.625 g/ha: 15.625 g ai/ha, evaluated after 13 days (100=total damage to plant; 0=no damage to plant); for pest or weed control at 62.5 g/ha: 62.5 g ai/ha; for pest or weed control at 62.5 g/ha / pest or weed control at 250 g/ha: evaluated after 13 days, 100=total damage to plant, 0=no damage to plant; for pest or weed control at 250 g/ha: 250 g ai/ha
In short: as §2

[10] = test system: ivy-leaved morning glory (Ipomoea hederacea); experiment: Test G Post-Emergence Protocol; details: Ipomoea, post-emergence, 312 h, read-out: Morningglory, Ivy-leaved damage rating; for pest or weed control at 15.625 g/ha: 15.625 g ai/ha, evaluated after 13 days (100=total damage to plant; 0=no damage to plant); for pest or weed control at 62.5 g/ha: 62.5 g ai/ha; for pest or weed control at 62.5 g/ha / pest or weed control at 250 g/ha: evaluated after 13 days, 100=total damage to plant, 0=no damage to plant; for pest or weed control at 250 g/ha: 250 g ai/ha
In short: as §2

[11] = test system: redroot pigweed (Amaranthus retroflexus); experiment: Test G Post-Emergence Protocol; details: Amaranthus retroflexus, post-emergence, 312 h, read-out: Pigweed, Redroot damage rating; for pest or weed control at 15.625 g/ha: 15.625 g ai/ha, evaluated after 13 days (100=total damage to plant; 0=no damage to plant); for pest or weed control at 62.5 g/ha: 62.5 g ai/ha; for pest or weed control at 62.5 g/ha / pest or weed control at 250 g/ha: evaluated after 13 days, 100=total damage to plant, 0=no damage to plant; for pest or weed control at 250 g/ha: 250 g ai/ha
In short: as §2

[12] = test system: velvetleaf (Abutilon theophrasti); experiment: Test G Post-Emergence Protocol; details: Abutilon theophrasti, post-emergence, 312 h, read-out: Velvetleaf damage rating; for pest or weed control at 15.625 g/ha: 15.625 g ai/ha, evaluated after 13 days (100=total damage to plant; 0=no damage to plant); for pest or weed control at 62.5 g/ha: 62.5 g ai/ha; for pest or weed control at 62.5 g/ha / pest or weed control at 250 g/ha: evaluated after 13 days, 100=total damage to plant, 0=no damage to plant; for pest or weed control at 250 g/ha: 250 g ai/ha
In short: as §2

SMILES | pest or weed control at 15.625 g/ha [1] [%] | pest or weed control at 62.5 g/ha [1] [%] | pest or weed control at 250 g/ha [1] [%] | plant injury at 15.625 g/ha [2] [%] | plant injury at 62.5 g/ha [2] [%] | plant injury at 250 g/ha [2] [%] | pest or weed control at 15.625 g/ha [3] [%] | pest or weed control at 62.5 g/ha [3] [%] | pest or weed control at 250 g/ha [3] [%] | pest or weed control at 15.625 g/ha [4] [%] | pest or weed control at 62.5 g/ha [4] [%] | pest or weed control at 250 g/ha [4] [%] | pest or weed control at 15.625 g/ha [5] [%] | pest or weed control at 62.5 g/ha [5] [%] | pest or weed control at 250 g/ha [5] [%] | pest or weed control at 15.625 g/ha [6] [%] | pest or weed control at 62.5 g/ha [6] [%] | pest or weed control at 250 g/ha [6] [%] | pest or weed control at 15.625 g/ha [7] [%] | pest or weed control at 62.5 g/ha [7] [%] | other results
CN1C[C@@H](c2ccc(CF)cc2)[C@H](C(=O)Nc2cccc(F)c2F)C1=O (racemic) [Compound 1822] | 70 | 90 | 90 | 0 | 20 | 70 | 90 | 90 | 90 | 0 | 20 | 80 | 0 | 60 | 80 | 0 | 60 | 80 | 70 | 80 | pest or weed control at 250 g/ha [7]: 80%; plant injury at 15.625 g/ha [8]: 0%; plant injury at 62.5 g/ha [8]: 40%; plant injury at 250 g/ha [8]: 60%; pest or weed control at 15.625 g/ha [9]: 70%; pest or weed control at 62.5 g/ha [9]: 80%; pest or weed control at 250 g/ha [9]: 80%; pest or weed control at 15.625 g/ha [10]: 20%; pest or weed control at 62.5 g/ha [10]: 10%; pest or weed control at 250 g/ha [10]: 30%; pest or weed control at 15.625 g/ha [11]: 0%; pest or weed control at 62.5 g/ha [11]: 10%; pest or weed control at 250 g/ha [11]: 30%; pest or weed control at 15.625 g/ha [12]: 0%; pest or weed control at 62.5 g/ha [12]: 30%; pest or weed control at 250 g/ha [12]: 40%
Cc1nc(Cl)ccc1NC(=O)[C@H]1C(=O)N(C)C[C@@H]1c1ccc(C(F)(F)F)cc1 (racemic) [Compound 1825] | 0 | 0 | 0 | 0 | 0 | 0 | 0 | 20 | 70 | 0 | 0 | 0 | 0 | 0 | 0 | 0 | 0 | 0 | 0 | 0 | pest or weed control at 250 g/ha [7]: 0%; plant injury at 15.625 g/ha [8]: 0%; plant injury at 62.5 g/ha [8]: 0%; plant injury at 250 g/ha [8]: 10%; pest or weed control at 15.625 g/ha [9]: 0%; pest or weed control at 62.5 g/ha [9]: 0%; pest or weed control at 250 g/ha [9]: 50%; pest or weed control at 15.625 g/ha [10]: 0%; pest or weed control at 62.5 g/ha [10]: 0%; pest or weed control at 250 g/ha [10]: 20%; pest or weed control at 15.625 g/ha [11]: 0%; pest or weed control at 62.5 g/ha [11]: 0%; pest or weed control at 250 g/ha [11]: 10%; pest or weed control at 15.625 g/ha [12]: 0%; pest or weed control at 62.5 g/ha [12]: 0%; pest or weed control at 250 g/ha [12]: 20%
